In patent publication US9365541B2, “Compounds for use in the treatment of parasitic diseases” (IRBM—SCIENCE PARK S.P.A., priority 2012, dated 2016):

Columns and labels:
human HDAC1 = molecular target: T1, human HDAC1 (Homo sapiens, UniProt Q13547); test: Homo sapiens HDAC1 inhibition assay (Fluor-de-Lys, enzymatic); format: biochemical; conditions: human HDAC enzymatic assay; read-out: hHDAC IC50
T1 construct: made in house; host or cells: HeLa (ATCC CCL-2), mammalian cells
Method: Biology Homo sapiens HDAC1 Inhibition Assay Overview:
The aim of the assay is to evaluate the inhibition of the deacetylase activity of human HDAC1. To such goal an acetylated substrate is added to the enzyme mix; the resulting enzymatic product is converted to a fluorescent molecule by the addition the enzyme trypsine (developer solution). Fluorescence intensity is inversely proportional to the rate of inhibition of the enzyme (as indicated in the material section below).
Reagents of the HDAC Fluorescent Activity Assay are purchased from Enzo Life Sciences (http://www.enzolifesciences.com/BML-AK500/fluor-de-lys-hdac-fluorometric-activity-assay-kit/) and feature the Fluor-de-Lys™ Substrate/Developer System.
c) Trichostatin A (TSA) Stock
TSA (Sigma-Aldrich, T8552) is provided as a 10 mM stock solution in 100% dimethylsulfoxide (DMSO).
Diluted Substrate Solution
The final concentration in the assay is 20 μM.
Diluted Developer Solution
2 μM [final] TSA to this solution increases its ability to stop the reaction.
The HDAC1 enzyme is diluted in assay buffer prior to each use from a fresh aliquot of enzyme.
The final concentration in the assay is 1-2 nM.
Test compounds should be prepared in 100% DMSO and transferred to the assay by a nano volume dispenser to reach the appropriate concentration and the appropriate DMSO concentration (0.25%) in the reaction.

[1] = test system: Plasmodium falciparum 3D7; test: P. falciparum growth inhibition assay (Pf-LDH); format: cell-based; conditions: Plasmodium falciparum, Erythrocyte; P. falciparum 3D7 infected erythrocytes, 72 h incubation, PfLDH readout
Method: Basic culture of Plasmodium falciparum 3D7 parasites (Malaria Research and Reference Reagent Resource Center (MR4), MR4 Number: MRA-102).
Starting with a culture with a parasitemia of about 10% (and 5% hematocrit), 0.5 ml of the culture is placed in a fresh 100 mm petri dish with 0.95 ml of fresh erythrocytes (50% hematocrit) and 8.55 ml of culture medium, giving a new starting parasitemia of 0.5%. The petri dish is then incubated at 37° C. in a humidified gas-tight plastic box flushed with a gas mixture consisting of 93% N2, 4% CO2, and 3% O2. The culture medium is changed daily. The supernatant is removed by gently tipping the dish without disturbing the settled cells and aspirating the medium with a Pasteur pipette connected to a vacuum pump. A small amount of the concentrated cells is taken to prepare a blood smear for determination of the parasitemia. Normally, the cultures are split twice a week. If the parasites are growing very slowly then fresh erythrocytes are added to the culture no later than after 7 days. The cultures are then split 1:2 if the parasitemia is lower than 0.5%. To avoid the necessity of daily medium change on weekends, a culture with a 2.5% hematocrit and 0.1-0.2% parasitemia is set up and can be left for 3 days without medium change.
Standard medium consists of RPMI 1640, supplemented with 25 mM HEPES, 24 mM NaHCO3, 0.36 mM hypoxanthine, 100 μg/ml Neomycin, 5 g/1 Albumax® II, and washed human red blood cells (rbcs) A+.
P. falciparum Growth Inhibition Assay (Pf-LDH)
Compounds of the invention were assessed for in vitro antimalarial activity against a cloroquine sensitive (3D7) strain of the malaria parasite Plasmodium falciparum, using a lactate dehydrogenase (PfLDH) assay.
EC50 Determination by Pf-LDH Assay
384 plates (where compounds to be tested are dispensed) with 25 μl of parasite inoculum (parasitemia: 0.25%, hematocrit: 2%) are incubated at 37° C. in an atmosphere of 4% CO2, 3% O2, 93% N2. After 72 h of incubation, plates are frozen at −70° C. overnight and thawed at room temperature for at least 4 h. To evaluate PfLDH activity, 70 μl of freshly made reaction mix (143 mM sodium L-lactate, 143 μM 3-acetyl pyridine adenine dinucleotide (APAD), 178.75 μM Nitro Blue tetrazolium chloride (NBT), 286 μg/ml diaphorase (2.83 U/ml), 0.7% Tween 20, 100 mM Tris-HCl pH 8.0) is dispensed using a Multidrop Combi dispenser. Plates are shaken to ensure mixing and absorbance at 650 nm is monitored in a plate reader after 10 min of incubation at room temperature.
Negative controls (0% Effect) are produced by addition of DMSO to the proper wells.
Positive controls (100% Effect) are produced by addition of 150 nM Artemisinin (Sigma-Aldrich, 361593)
After result normalization using positive and negative controls, compound potency is determined by fitting the following equation: % inh=Ymin+(Ymax−Ymin)/(1+(X/EC50)^slope)) Where: • Ymin=minimum percentage effect • Ymax=maximum percentage effect • EC50=the concentration of the compound at which 50% effect is reached • Slope=the slope of the curve calculated at the EC50 Histone Hyperacetylation and Immunodetection of Altered Histone Modifications Assay

T1 sequence (Q13547 whole entry): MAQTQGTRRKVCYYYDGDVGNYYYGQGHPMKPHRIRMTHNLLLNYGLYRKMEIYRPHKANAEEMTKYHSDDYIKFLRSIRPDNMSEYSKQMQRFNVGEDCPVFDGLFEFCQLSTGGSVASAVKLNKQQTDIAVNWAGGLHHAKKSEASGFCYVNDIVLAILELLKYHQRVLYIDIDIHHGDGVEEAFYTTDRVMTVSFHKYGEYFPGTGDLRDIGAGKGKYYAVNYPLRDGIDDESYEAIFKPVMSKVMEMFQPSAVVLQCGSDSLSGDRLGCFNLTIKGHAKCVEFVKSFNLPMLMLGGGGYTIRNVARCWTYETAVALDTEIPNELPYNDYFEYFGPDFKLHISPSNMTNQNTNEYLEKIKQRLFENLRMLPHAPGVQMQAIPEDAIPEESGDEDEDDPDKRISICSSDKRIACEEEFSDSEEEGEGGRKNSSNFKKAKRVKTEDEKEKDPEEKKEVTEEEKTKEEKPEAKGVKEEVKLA

| IC50 (human HDAC1) [nM] | EC50 [1] [nM] | SMILES |
| --- | --- | --- |
| < 1000 | < 1000 | CNC(=O)CCCCC[C@H](NC(=O)Cc1cnc2ncnn2c1)c1ncc(-c2ccc3ccccc3c2)[nH]1 [Entry 22, (S)-7-(2-([1,2,4]triazolo[1,5-a]pyrimidin-6-yl)acetamido)-N-methyl-7-(5-(naphthalen-2-yl)-1H-imidazol-2-yl)heptanamide] |
| 1000 to 5000 | 1000 to 5000 | CNC(=O)CCCCC[C@H](NC(=O)CN1CCOCC1)c1ncc(-c2ccc3ccccc3c2)[nH]1 [Entry 23, (S)-N-methyl-7-(2-morpholinoacetamido)-7-(5-(naphthalen-2-yl)-1H-imidazol-2-yl)heptanamide] |
| 1000 to 5000 | < 1000 | CNC(=O)CCCCC[C@H](NC(=O)c1cncs1)c1ncc(-c2ccc3[nH]ccc3c2)[nH]1 [Entry 24, (S)-N-(1-(5-(1H-indol-5-yl)-1H-imidazol-2-yl)-7-(methylamino)-7-oxoheptyl)thiazole-5-carboxamide] |
| 1000 to 5000 | < 1000 | CCOc1cccc2cc(-c3cnc([C@H](CCCCCC(=O)NC)NC(=O)c4cncs4)[nH]3)ccc12 [Entry 25, (S)-N-(1-(5-(5-ethoxynaphthalen-2-yl)-1H-imidazol-2-yl)-7-(methylamino)-7-oxoheptyl)thiazole-5-carboxamide] |
| < 1000 | 1000 to 5000 | CNC(=O)CCCCC[C@H](NC(=O)C1CN(C)C1)c1ncc(-c2ccc3ccccc3c2)[nH]1 [Entry 26] |
| 1000 to 5000 | 1000 to 5000 | CNC(=O)CCCCC[C@H](NC(=O)CCn1ccnc1)c1ncc(-c2cc3ccccc3nc2OC)[nH]1 [Entry 27, (S)-7-(3-(1H-imidazol-1-yl)propanamido)-7-(5-(2-methoxyquinolin-3-yl)-1H-imidazol-2-yl)-N-methylheptanamide] |
| < 1000 | 1000 to 5000 | CCc1nc2ccccc2n1CCC(=O)N[C@@H](CCCCCC(=O)NC)c1ncc(-c2ccc(C(F)(F)F)cc2)[nH]1 [Entry 28] |
| 1000 to 5000 | 1000 to 5000 | CNC(=O)CCCCC[C@H](NC(=O)c1cncs1)c1ncc(-c2ccc(-c3ccncc3)cc2)[nH]1 [Entry 29, (S)-N-(7-(methylamino)-7-oxo-1-(5-(4-(pyridin-4-yl)phenyl)-1H-imidazol-2-yl)heptyl)thiazole-5-carboxamide] |
| > 5000 | 1000 to 5000 | CNC(=O)CCCCC[C@H](NC(=O)c1csc(-c2cccnc2)n1)c1ncc(-c2cc3ccccc3nc2OC)[nH]1 [Entry 30] |
| < 1000 | 1000 to 5000 | CNC(=O)CCCCC[C@H](NC(=O)c1nnc(C)s1)c1ncc(-c2cc3ccccc3nc2OC)[nH]1 [Entry 31, (S)-N-(1-(5-(2-methoxyquinolin-3-yl)-1H-imidazol-2-yl)-7-(methylamino)-7-oxoheptyl)-5-methyl-1,3,4-thiadiazole-2-carboxamide] |
| < 1000 | > 5000 | CNC(=O)CCCCC[C@H](NC(=O)CN1CCC(N(C)C)C1)c1ncc(-c2cc3ccccc3nc2OC)[nH]1 (stereo partly drawn) [Entry 32, (7S)-7-(2-(3-(dimethyl-amino)pyrrolidin-1-yl)acetamido)-7-(5-(2-methoxyquinolin-3-yl)-1H-imidazol-2-yl)-N-methylheptanamide] |
| < 1000 | 1000 to 5000 | CNC(=O)CCCCC[C@H](NC(=O)C1CCCN(C)C1)c1ncc(-c2cc3ccccc3nc2OC)[nH]1 (stereo partly drawn) [Entry 33, N-((S)-1-(5-(2-methoxyquinolin-3-yl)-1H-imidazol-2-yl)-7-(methylamino)-7-oxoheptyl)-1-methylpiperidine-3-carboxamide] |
| 1000 to 5000 | 1000 to 5000 | CNC(=O)CCCCC[C@H](NC(=O)c1cnsc1)c1ncc(-c2ccc3[nH]ncc3c2)[nH]1 [Entry 34, (S)-N-(1-(5-(1H-indazol-5-yl)-1H-imidazol-2-yl)-7-(methylamino)-7-oxoheptyl)isothiazole-4-carboxamide] |
| 1000 to 5000 | < 1000 | CNC(=O)CCCCC[C@H](NC(=O)c1cncs1)c1ncc(-c2cccc(CN)c2)[nH]1 [Entry 35, (S)-N-(1-(5-(3-(amino-methyl)phenyl)-1H-imidazol-2-yl)-7-(methylamino)-7-oxoheptyl)thiazole-5-carboxamide] |
